Entries after “also recorded” stand apart in the source; their conditions may differ.
Columns and labels:
Type in all cases: cell-based, human
[1] = tested on: HL60 cells; test: Inhibition of native cell surface fucosylation of HL60 cells (flow cytometry); conditions: 72 hours incubation, 24-, 48-, 72-hour timepoints, 6A and 26 at 64 or 256 uM
Protocol: (§1) For inhibition of cell surface fucosylation, a Symphony A3 (BD Biosciences) was utilized for flow cytometry and the data acquired was analyzed using FlowJo Software (Treestar). Cells were stained using antibodies specific to CD15s (CSLEX1) from BD biosciences and CD15 (LeX) from Biolegend.
The HL60 cell line (a human promyelocytic leukemia cell line) was incubated for 72 hours in RPMI 1640 medium containing 10% FBS with either 2F-Ac-Fucose (positive control), Compound 6A (64 or 256 uM), or Compound 26 (64 or 256 uM). Cells were evaluated by flow cytometry at 24-, 48-, and 72-hour timepoints of incubation for expression of CD15s (sLe^X) and CD15 (Le^X) (FIG. 10B).
(§2) In each case, expression of the relevant marker (CD15 or CD15s) was quantified as the median channel fluorescence (MFI), which was then divided by the MFI of Control cells incubated in media containing DMSO at levels equivalent to that for each inhibitor tested (i.e., Y-axis are values of (MFI of inhibitor-treated cells/MFI of DMSO-incubated Control cells)×100%).

[2] = tested on: THP-1 cells; test: Inhibition of native cell surface fucosylation of THP-1 cells (flow cytometry); conditions: for CD15 (Le^X) expression / CD15s (sLe^X) expression: 48 hours incubation, 24- and 48-hour timepoints
Protocol: as §1
The THP-1 cell line (a human monocytic leukemia cell line) was incubated for 48 hours with either Compound 31, Compound 6A, Compound 26, or with 2F-Ac-Fucose (positive control) in RPMI 1640 medium containing 10% FBS. Cells were evaluated by flow cytometry at 24- and 48-hour timepoints for expression of CD15 (Le^X), and CD15s (sLe^X) (FIG. 11).
as §2

[3] = tested on: KG1a cells; test: Inhibition of native cell surface fucosylation of KG1a cells (flow cytometry); conditions: 72 hours incubation, 24-, 48-, 72-hour timepoints, 64 or 256 uM
Protocol: as §1
Cells were evaluated at 24-, 48-, and 72-hour timepoints of incubation to assess for effects on expression of CD15s (sLe^X) by flow cytometry (FIG. 10A).
as §2

SMILES	CD15 (Le^X) expression [1]	CD15s (sLe^X) expression [1]	concentration range inhibiting creation of CD15s [2]	concentration range inhibiting synthesis of CD15 [2]	CD15s (sLe^X) synthesis ([2]; 3 μM)	CD15 (Le^X) synthesis ([2]; 50 μM)	CD15s (sLe^X) synthesis ([2]; 50 μM)	CD15 (Le^X) expression [2]	CD15s (sLe^X) expression [2]	CD15s (sLe^X) expression [3]	time by which CD15s inhibition is evident [2]	concentration inhibiting creation of CD15s ([2]; within 48 hours)
CC(=O)OC1O[C@@H](C)[C@@H](OC(C)=O)[C@@H](OC(C)=O)[C@@H]1F (stereo partly drawn) [2F-Ac-Fucose, reference compound]	loss of both CD15s and CD15 expression	loss of both CD15s and CD15 expression	micromolar range	micromolar range	not at 3 μM concentration	inhibition of synthesis	inhibition of synthesis	inhibits synthesis of both markers	inhibits synthesis of both markers	–	–	–
CC(=O)OC1C(C)OC2Oc3ccc(CC(=O)NCCOCCOCCN)cc3SC2C1OC(C)=O.O=C(O)C(F)(F)F (stereo not drawn) [Compound 6A]	only inhibited the formation of CD15s	inhibited the formation of CD15s	nanomolar range; also recorded: nM range	–	–	–	–	does not inhibit CD15 expression	inhibit creation of CD15s	inhibited CD15s expression similar to that of 2F-Ac-Fucose	≤ 24 h	–
CCOC(=O)C1=C(C23CCC4CC(CC(C4)C2)C3)OC2OC(C)C(OC(C)=O)C(OC(C)=O)C2S1 (stereo not drawn) [Compound 26]	only inhibited the formation of CD15s	inhibited the formation of CD15s	nanomolar range; also recorded: nM range	–	–	–	–	does not inhibit CD15 expression	inhibit creation of CD15s	inhibited CD15s expression similar to that of 2F-Ac-Fucose	≤ 24 h	–
COC(=O)Cc1ccc2c(c1)SC1C(O2)OC(C)C(OC(C)=O)C1OC(C)=O (stereo not drawn) [Compound 31]	–	–	–	–	–	–	–	does not inhibit CD15 expression	specificity for inhibiting the creation of CD15s; also recorded: inhibits the creation of CD15s	–	≤ 48 h	below 50 uM

— US12486298B2, “Fucosyltransferase specific inhibition using fucose mimetics” (THE FLORIDA INTERNATIONAL UNIVERSITY BOARD OF TRUSTEES, priority 2020, dated 2025)
